Measured values as given in patent US20140135310A1, “SULPHONAMIDE DERIVATIVES OF ALICYCLIC AMINES FOR THE TREATMENT OF CENTRAL NERVOUS SYSTEM DISEASES” (Adamed Sp. z o.o., priority 2011, published 2014).

Assays:
[1] = molecular target: dopaminergic receptors D2 (Homo sapiens, UniProt P14416); assay: Radioligand binding assay, dopaminergic D2 receptors; conditions: for Ki: read-out: Inhibition constants Ki for D2 receptors, D2
Summary of the method: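 Ki from Cheng–Prusoff conversion of Hill-fitted IC50 values, using the assay radioligand concentration and a Scatchard-determined KD. Specific binding, scintillation-counted, excluded signal remaining under excess unlabelled ligand.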

[2] = molecular target: T1, 5-HT1A receptor (rat hippocampus) (Rattus norvegicus, UniProt P19327); assay: Radioligand binding assay, serotoninergic 5-HT1A receptors; conditions: binding assay result in %, Table 5a;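 note: test compound at 1 µM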
T1 construct: hippocampus; from tissue; host or cells: rat hippocampus
T1 sequence (P19327 1-422): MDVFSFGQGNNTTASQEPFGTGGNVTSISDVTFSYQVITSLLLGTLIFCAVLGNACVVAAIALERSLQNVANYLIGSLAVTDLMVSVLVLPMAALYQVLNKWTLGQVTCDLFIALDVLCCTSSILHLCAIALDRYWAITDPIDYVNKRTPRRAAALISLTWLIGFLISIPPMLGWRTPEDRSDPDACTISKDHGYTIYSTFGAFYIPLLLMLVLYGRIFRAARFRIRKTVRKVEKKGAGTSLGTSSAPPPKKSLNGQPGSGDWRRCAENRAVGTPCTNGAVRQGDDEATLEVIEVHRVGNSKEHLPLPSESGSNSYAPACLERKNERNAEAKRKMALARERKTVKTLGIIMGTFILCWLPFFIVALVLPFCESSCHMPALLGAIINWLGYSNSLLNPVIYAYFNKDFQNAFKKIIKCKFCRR

[3] = tested on: α1 adrenergic receptors (rat cerebral cortex); assay: Radioligand binding assay, adrenergic α1 receptors; conditions: test compound 1×10^−6 M
Summary of the method: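 Values derive from radioligand displacement, with non-specific binding defined by excess cold ligand and detection by scintillation. Hill-fit IC50s were converted to Ki via Cheng-Prusoff using Scatchard-derived Kd; percent inhibition of control specific binding also reported.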

[4] = molecular target: T2, α2C adrenergic receptors (Homo sapiens, UniProt P18825); assay: Radioligand binding assay, adrenergic α2C receptors; conditions: test compound 1×10^−6 M
T2 construct: expressed in transfected cells; host or cells: CHO cells
T2 sequence (P18825 1-462): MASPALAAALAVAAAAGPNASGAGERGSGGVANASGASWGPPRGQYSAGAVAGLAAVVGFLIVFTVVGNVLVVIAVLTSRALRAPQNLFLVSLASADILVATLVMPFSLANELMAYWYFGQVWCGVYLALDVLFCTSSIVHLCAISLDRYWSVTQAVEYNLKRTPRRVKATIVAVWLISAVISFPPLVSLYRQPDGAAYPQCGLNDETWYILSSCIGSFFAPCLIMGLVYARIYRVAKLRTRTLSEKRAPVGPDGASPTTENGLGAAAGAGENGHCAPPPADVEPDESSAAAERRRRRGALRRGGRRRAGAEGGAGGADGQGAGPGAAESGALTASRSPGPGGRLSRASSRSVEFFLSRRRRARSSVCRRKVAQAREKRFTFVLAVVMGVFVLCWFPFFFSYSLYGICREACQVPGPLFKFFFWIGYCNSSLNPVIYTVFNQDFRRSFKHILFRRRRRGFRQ
Description: (§1) The specific ligand binding to the receptors is defined as the difference between the total binding and the non-specific binding determined in the presence of the excess of unlabelled ligand.
(§2) The results are expressed as a percent of control specific binding ((measured specific binding/control specific binding)×100) and as a percent inhibition of control specific binding (100−((measured specific binding/control specific binding)×100)) obtained in the presence of the test compounds. The specific ligand binding to the receptors is defined as the difference between the total binding and the nonspecific binding determined in the presence of an excess of unlabelled ligand. Scintillation counting was the method of detection of ligand binding. The IC50 values (concentration causing a half-maximal inhibition of control specific binding) were determined by non-linear regression analysis of the competition curves generated with mean replicate values using Hill equation curve fitting (Y=D+[(A−D)/(1+(C/C50)nH)], where Y=specific binding, D=minimum specific binding, A=maximum specific binding, C=compound concentration, C50=IC50, and nH=slope factor). This analysis was performed using a software developed at Cerep (Hill software) and validated by comparison with data generated by the commercial software SigmaPlot® 4.0 for Windows® (© 1997 by SPSS Inc.). The inhibition constants (Ki) were calculated using the Cheng Prusoff equation (Ki=IC50/(1+(L/KD)), where L=concentration of radioligand in the assay, and KD=affinity of the radioligand for the receptor). A scatchard plot was used to determine the Kd.
Experimental conditions for tests are given in Table 7, and results of tests for representative compounds are given in Tables 8 (α1 receptors) and in Tables 9 (α2C receptors).

[5] = molecular target: T3, serotonin transporter (SERT) (Homo sapiens, UniProt P31645); assay: Radioligand binding assay, serotonin transporter (SERT); conditions: binding assay, test compound 1×10^−6 M
T3 construct: expressed in transfected cells; host or cells: CHO cells
Summary of the method: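 Values are derived from competition curves fitted by the Hill equation to give IC50, then converted to Ki by Cheng-Prusoff with radioligand Kd from Scatchard analysis. Specific binding equals total minus non-specific (excess cold ligand), counted by scintillation, and is also expressed as percent inhibition of control.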

[6] = tested on: σ receptors; assay: Radioligand binding assay, σ receptors; conditions: rat cerebral cortex, [3H]DTG 8 nM
Description: as §1
as §2, with “This analysis was performed using a software developed at Cerep (Hill software) and validated by comparison with data generated by the commercial software SigmaPlot® 4.0 for Windows® (© 1997 by SPSS Inc.).” left out

[7] = binding assay, test compound 1×10^−6 M

Chain of dopaminergic receptors D2 (P14416 whole entry): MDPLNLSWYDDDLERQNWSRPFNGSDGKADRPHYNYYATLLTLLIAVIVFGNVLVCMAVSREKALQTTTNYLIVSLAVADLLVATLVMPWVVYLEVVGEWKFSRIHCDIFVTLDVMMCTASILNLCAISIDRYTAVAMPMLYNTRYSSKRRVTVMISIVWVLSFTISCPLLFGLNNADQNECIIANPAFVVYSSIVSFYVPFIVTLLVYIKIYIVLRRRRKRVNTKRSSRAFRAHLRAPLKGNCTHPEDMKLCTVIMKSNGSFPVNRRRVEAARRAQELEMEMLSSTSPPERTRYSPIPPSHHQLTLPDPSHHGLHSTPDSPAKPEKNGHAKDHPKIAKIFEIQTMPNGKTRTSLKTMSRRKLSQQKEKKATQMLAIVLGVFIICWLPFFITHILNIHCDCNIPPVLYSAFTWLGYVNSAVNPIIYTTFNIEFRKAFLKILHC
T3 sequence (P31645 whole entry): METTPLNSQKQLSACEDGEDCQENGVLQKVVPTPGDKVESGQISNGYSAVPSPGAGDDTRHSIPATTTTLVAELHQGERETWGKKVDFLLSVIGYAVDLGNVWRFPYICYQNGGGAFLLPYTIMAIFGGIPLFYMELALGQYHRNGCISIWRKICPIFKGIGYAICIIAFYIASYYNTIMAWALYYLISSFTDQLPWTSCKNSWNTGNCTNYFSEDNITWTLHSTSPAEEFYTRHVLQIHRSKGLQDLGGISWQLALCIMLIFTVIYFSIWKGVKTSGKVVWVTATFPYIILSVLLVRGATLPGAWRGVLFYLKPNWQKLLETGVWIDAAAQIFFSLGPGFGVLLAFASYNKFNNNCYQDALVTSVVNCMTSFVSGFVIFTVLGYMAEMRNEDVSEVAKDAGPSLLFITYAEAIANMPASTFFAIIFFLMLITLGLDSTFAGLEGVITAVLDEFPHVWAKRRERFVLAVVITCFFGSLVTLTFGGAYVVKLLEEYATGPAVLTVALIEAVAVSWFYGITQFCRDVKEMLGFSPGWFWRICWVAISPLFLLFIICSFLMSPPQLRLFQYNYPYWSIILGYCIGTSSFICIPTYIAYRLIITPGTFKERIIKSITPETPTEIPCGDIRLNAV

D2 [%] [1, 7] | 5-HT1A [%] [2] | α2C [%] [4] | SERT [%] [5] | Structure (SMILES) | inhibition at 1 µM [1, 7] | inhibition at 1 µM [2] | α1 [%] [3] | inhibition at 1 µM [4] | inhibition at 1 µM [5] | σ [%] [6] | Ki [1]
 |  |  |  | O=S(=O)(NCC1CCN(CCCc2noc3cc(F)ccc23)C1)c1ccc2ccccc2c1 (stereo not drawn) [Compound 240, N-[[1-[3-(6-Fluoro-1,2-benzoxazol-3-yl)propyl]pyrrolidin-3-yl]methyl]-naphthalene-2-sulphonamide] | 95% | 30% | 86% | 84% | 43% | 92% | 
 |  |  |  | O=S(=O)(N[C@H]1CCN(CCCc2noc3cc(F)ccc23)C1)c1cc2ccc(Cl)cc2s1 [Compound 199, 6-Chloro-N-[(3S)-1-[3-(6-fluoro-1,2-benzoxazol-3-yl)propyl]pyrrolidin-3-yl]benzothiophene-2-sulphonamide] | 96% | 38% | 66% | 82% | 39% | 80% | 4.4 nM
 |  |  |  | Cc1c(S(=O)(=O)NC2CCN(CCCc3noc4cc(F)ccc34)C2)sc2ccc(F)cc12 (stereo not drawn) [Compound 28, 5-Fluoro-N-[1-[3-(6-fluoro-1,2-benzoxazol-3-yl)propyl]pyrrolidin-3-yl]-3-methyl-benzothiophene-2-sulphonamide] | 97% | 61% | 70% | 93% | 54% | 70% | 
 |  |  |  | O=S(=O)(NC1CN(CCOc2cccc3[nH]ccc23)C1)c1ccc2ccccc2c1 [Compound 50, N-[1-[2-(1H-Indol-4-yloxy)ethyl]azetidin-3-yl]naphthalene-2-sulphonamide] | 96% | 101% | 88% | 108% | 20% | 59% | 
 |  |  |  | O=S(=O)(NC1CCN(CCOc2nsc3ccccc23)C1)c1ccc2ccccc2c1 (stereo not drawn) [Compound 39, N-[1-[2-(1,2-Benzothiazol-3-yloxy)ethyl]pyrrolidin-3-yl]naphthalene-2-sulphonamide] | 86% | 99% | 29% | 92% | 29% | 54% | 
 |  |  |  | O=S(=O)(N[C@@H]1CCN(CCCc2noc3cc(F)ccc23)C1)c1cc2ccc(Cl)cc2s1 [Compound 198, 6-Chloro-N-[(3R)-1-[3-(6-fluoro-1,2-benzoxazol-3-yl)propyl]pyrrolidin-3-yl]benzothiophene-2-sulphonamide] | 99% | 45% | 76% | 80% | 44% | 86% | 1.8 nM
78% | 98% | 84% | 23% | Cc1cccc(S(=O)(=O)NC2CN(CCOc3cccc4c3OCCO4)C2)c1 [Compound 93, N-[1-[2-(2,3-Dihydro-1,4-benzodioxan-8-yloxy)ethyl]azetidin-3-yl]-3-methyl-benzenesulphonamide] |  |  | 52% |  |  | 35% | 
 |  |  |  | COc1ccc2cc(S(=O)(=O)NC3CCN(CCCc4noc5cc(F)ccc45)C3)ccc2c1 (stereo not drawn) [Compound 227, N-[1-[3-(6-Fluoro-1,2-benzoxazol-3-yl)propyl]pyrrolidin-3-yl]-6-methoxy-naphthalene-2-sulphonamide] | 97% | 62% | 85% | 90% | 69% | 59% | 
 |  |  |  | Cc1cc(S(=O)(=O)NC2CCN(CCCc3noc4cc(F)ccc34)C2)c(C)s1 (stereo not drawn) [Compound 221, N-[1-[3-(6-Fluoro-1,2-benzoxazol-3-yl)propyl]pyrrolidin-3-yl]-2,5-dimethyl-thiophene-3-sulphonamide] | 97% | 67% | 85% | 88% | 67% | 83% | 
 |  |  |  | O=S(=O)(N[C@H]1CCN(CCCc2noc3cc(F)ccc23)C1)c1ccc2cc(Cl)ccc2c1 [Compound 201, 6-Chloro-N-[(3S)-1-[3-(6-fluoro-1,2-benzoxazol-3-yl)propyl]pyrrolidin-3-yl]naphthalene-2-sulphonamide] | 99% | 32% | 82% | 89% | 59% |  | 15 nM
 |  |  |  | O=S(=O)(NCC1CCN(CCOc2cccc3c2OCCO3)C1)c1ccc(C(F)(F)F)cc1 (stereo not drawn) [Compound 293, N-[[1-[2-(2,3-Dihydro-1,4-benzodioxin-5-yloxy)ethyl]pyrrolidin-3-yl]methyl]-4-(trifluoromethyl)benzenesulphonamide] | 66% | 100% | 77% | 95% | 82% |  | 
 |  |  |  | Cc1ccc2sc(S(=O)(=O)N[C@@H]3CCN(CCCc4noc5cc(F)ccc45)C3)cc2c1 [Compound 228, N-[(3R)-1-[3-(6-Fluoro-1,2-benzoxazol-3-yl)propyl]pyrrolidin-3-yl]-5-methyl-benzothiophene-2-sulphonamide] | 100% | 27% | 88% | 95% | 61% |  | 0.7 nM
 |  |  |  | O=S(=O)(NCC1CCN(CCOc2cccc3c2OCCO3)C1)c1cccc(F)c1 (stereo not drawn) [Compound 298, N-[[1-[2-(2,3-Dihydro-1,4-benzodioxin-5-yloxy)ethyl]pyrrolidin-3-yl]-methyl]-3-fluoro-benzenesulphonamide] | 52% | 97% | 77% | 94% | 72% |  | 
 |  |  |  | O=S(=O)(N[C@H]1CCN(CCCc2noc3cc(F)ccc23)C1)c1ccc2ccccc2c1 [Compound 207, N-[(3S)-1-[3-(6-Fluoro-1,2-benzoxazol-3-yl)propyl]pyrrolidin-3-yl]-naphthalene-2-sulphonamide] | 101% | 58% | 95% | 90% | 58% |  | 3.8 nM
